# Measured values published in patent US20220168434A1, “APPLICATION OF TRANSTHYRETIN IN ENTERING EYE AND PREPARING DROP” (YIZHOU (SHANGHAI) BIOLOGICAL MEDICINE CO, LTD., priority 2019, published 2022).
# Experiments:
# [1] = biological target: T1, TTR (Homo sapiens, UniProt P02766); test: Affinity binding equilibrium dissociation constant Kd of TTR and ligand molecules by nano ITC; conditions: 10 μmol/L TTR solution, 100 μmol/L ligand solution dropped at 1 μL/min, read-out: Affinity binding equilibrium dissociation constants (Kd) of ligand molecule and TTR
# T1 construct: made in house; host or cells: E. coli BL21 (DE3)
# Method: The affinity binding equilibrium dissociation constant Kd of TTR and each ligand molecule or salts thereof described in Example 24 was determined by nano ITC (TA).
# [2] = test system: DR SD rats induced by STZ; test: DR (diabetic retinopathy) SD rats induced by STZ, eye dropping, EB staining and Trypsin enzymatic hydrolysis of retina; assay type: in vivo; conditions: for eyeball retinal leakage condition (in words) / number of retinal neovascularization (in words): eye dropping twice per day
# Method: 8-week-old SD rats weighing 200-250 g was fasted for 12-18 h, and treated with intraperitoneally injection of 2% STZ (60 mg/kg), followed by cutting the tail and collecting blood thereof after 48 h and 72 h. […] DR SD rats were divided into 2 large groups, one is DR SD rats without any treatment (5 rats), and the other is the human TTR eye dropping group (25 rats) dropped with the human TTR prepared in Example 5, each left eye dropped with human TTR (5-20 μmol/L) (normal saline+2% hyaluronic acid) twice a day, and each right eye dropped with saline+2% hyaluronic acid; in addition, another group of normal SD rats (No eye dropping) served as a normal control group (5 rats).
# 8-week-old SD rats weighing 200-250 g was fasted for 12-18 h, and treated with intraperitoneally injection of 2% STZ (60 mg/kg), followed by cutting the tail and collecting blood thereof after 48 h and 72 h. […]
# 8-week-old SD rats weighing 200-250 g, was fasted for 12-18 h, and treated with intraperitoneally injection of 2% STZ (60 mg/kg), followed by cutting the tail and collecting blood thereof after 48 h and 72 h. […] Wherein, the left eye was dropped with human TTR prepared in Example 5, or human TTR prepared in Example 5 added with the ligand, specifically with 10 μmol/L human TTR (saline solution+2% hyaluronic acid), 10 μmol/L human TTR (saline solution+2% hyaluronic acid+10 diclofenac sodium), 10 μmol/L human TTR (saline solution+2% hyaluronic acid+5 μmol/L vitamin A+5% Tween 80) and 10 μmol/L human TTR (saline solution+2% hyaluronic acid+5 luteoloside); the right eye was dropped with saline solution+2% hyaluronic acid, or saline solution+2% hyaluronic acid+ligand as control, specifically with saline solution+2% hyaluronic acid, saline solution+2% hyaluronic acid+10 diclofenac sodium, saline solution+2% hyaluronic acid+5 μmol/L vitamin A+5% Tween 80 and saline solution+2% hyaluronic acid+5 μmol/L luteoloside. In addition, there was another group of normal SD rats as a normal control group (5 rats). All SD rats were fed for 3 months, followed by stripping the retina for staining with Evans Blue (EB) to observe the retinal vascular leakage, for Trypsin enzymatic hydrolysis to observe the density of neovascularization.
# [3] = test system: ROP SD suckling rats induced by hyperbaric oxygen chamber; test: ROP (retinopathy of prematurity) SD suckling rats induced by hyperbaric oxygen chamber, eye dropping, EB staining of retina; assay type: in vivo
# [4] = test system: AMD C57BL/6 mice induced by laser retinal photocoagulation; test: AMD (age-related macular degeneration) C57BL/6 mice induced by laser retinal photocoagulation, eye dropping, EB staining and Trypsin enzymatic hydrolysis of retina; assay type: in vivo; conditions: for eyeball retinal leakage condition (in words) / number of retinal neovascularization / neovascularization condition (in words): 10 μmol/L, eye dropping twice per day
# Excerpt: (§1) 9-week-old C57BL/6 mice were subject to retinal photocoagulation by krypton laser (647 nm), with a power of 360 mW, a diameter of 50 μm, a time of 0.05 s, 8 photocoagulation site for each eye, for inducing the neovascularization in choroid, and gradually proceeding to retinal hyperplasia to obtain AMD C57BL/6 mice. AMD C57BL/6 mice were divided into a dropping group and a non-dropping group.
# as §1, with “group. […] The animals were sacrificed after eye dropping for 2 weeks, and the retina was stripped for EB staining to observe the retinal leakage conditions, and for Trypsin enzymatic hydrolysis to observe the density of neovascularization.” for “group.”
# 9-week-old C57BL/6 mice were subject to retinal photocoagulation by krypton laser (647 nm), with a power of 360 mW, a diameter of 50 μm, a time of 0.05 s, 8 photocoagulation site for each eye, for inducing the neovascularization in choroid, and gradually proceeding to retinal hyperplasia to obtain AMD C57BL/6 mice. […] Wherein, the left eye was dropped with human TTR prepared in Example 5, or human TTR prepared in Example 5 added with the excipient, specifically with 10 μmol/L human TTR (saline solution), 10 μmol/L human TTR (saline solution+6 mg/mL sodium carboxymethyl cellulose), 10 μmol/L human TTR (saline solution+6 mg/mL PEG400), 10 μmol/L human TTR (saline solution+0.4 mg/mL dextran 70) and 10 μmol/L human TTR (saline solution+20 mg/mL chondroitin sulfate A sodium salt); the right eye was dropped with saline solution, or saline solution added with the excipient as control, specifically with saline solution, saline solution+6 mg/mL sodium carboxymethyl cellulose, saline solution+6 mg/mL PEG400, saline solution+0.4 mg/mL dextran 70 and saline solution+20 mg/mL chondroitin sulfate A sodium salt). In addition, there was another group of normal […] C57BL/6 mice as a normal control group (5 mice). The animals were sacrificed after eye dropping for 2 weeks, and the retina was stripped for EB staining to observe the retinal leakage conditions, and for Trypsin enzymatic hydrolysis to observe the density of neovascularization.
# 9-week-old C57BL/6 mice were subject to retinal photocoagulation by krypton laser (647 nm), with a power of 360 mW, a diameter of 50 μm, a time of 0.05 s, 8 photocoagulation site for each eye, for inducing the neovascularization in choroid, and gradually proceeding to retinal hyperplasia to obtain AMD C57BL/6 mice. […] Wherein, the left eye was dropped with human TTR prepared in Example 5, or human TTR prepared in Example 5 added with the ligand, specifically with 10 μmol/L human TTR (saline solution+2% hyaluronic acid), 10 μmol/L human TTR (saline solution+2% hyaluronic acid+10 diclofenac sodium), 10 μmol/L human TTR (saline solution+2% hyaluronic acid+5 μmol/L vitamin A+5% Tween 80) and 10 μmol/L human TTR (saline solution+2% hyaluronic acid+5 μmol/L luteoloside); the right eye was dropped with saline solution+2% hyaluronic acid, or saline solution+2% hyaluronic acid+ligand as control, specifically with saline solution+2% hyaluronic acid, saline solution+2% hyaluronic acid+10 diclofenac sodium, saline solution+2% hyaluronic acid+5 μmol/L vitamin A+5% Tween 80 and saline solution+2% hyaluronic acid+5 luteoloside. In addition, there was another group of normal C57BL/6 mice as a normal control group (5 mice). The animals were sacrificed after eye dropping for 2 weeks, and the retina was stripped for EB staining to observe the retinal leakage conditions, and for Trypsin enzymatic hydrolysis to observe the density of neovascularization.
# [5] = biological target: TTR dimer (Homo sapiens, UniProt P02766); conditions: static co-crystallization model in the PDB database (3CFQ); cited from earlier work
# [6] = DR SD rats induced by STZ, 3 months of eye dropping, ligand independently (no TTR) in saline + 2% hyaluronic acid: 10 μmol/L diclofenac sodium/5 μmol/L vitamin A + 5% Tween 80/5 μmol/L luteoloside, right eye
# [7] = ROP SD suckling rats induced by hyperbaric oxygen chamber, 5 days of eye dropping, ligand independently (no TTR) in saline + 2% hyaluronic acid: 10 μmol/L diclofenac sodium/5 μmol/L vitamin A + 5% Tween 80/5 μmol/L luteoloside, right eye
# [8] = AMD C57BL/6 mice induced by laser retinal photocoagulation, 2 weeks of eye dropping, ligand independently (no TTR) in saline + 2% hyaluronic acid: 10 μmol/L diclofenac sodium/5 μmol/L vitamin A + 5% Tween 80/5 μmol/L luteoloside, right eye
# [9] = DR SD rats induced by STZ, 3 months
# [10] = DR SD rats, 10 μmol/L in saline solution + 2% hyaluronic acid, eyedropping twice a day, 3 months
# [11] = ROP SD suckling rats, 10 μmol/L in saline solution + 2% hyaluronic acid, eyedropping once per day, 5 days
# [12] = AMD C57BL/6 mice, 10 μmol/L in saline solution + 2% hyaluronic acid, eyedropping twice per day, 2 weeks
compound,measurement,setting,value
"O=C(O)Cc1ccccc1Nc1c(Cl)cccc1Cl [Diclofenac sodium, diclofenac sodium, reference compound]",Kd,[1],45 nM
same,No. of retinal neovascularization (10 visual fields),[2]; [6],80 ± 9
same,Retinal leakage area,[2]; [6],30.4%
same,Retinal leakage area,[3]; [7],48.5 ± 5.8%
same,No. of retinal neovascularization (10 visual fields),[4]; [8],85 ± 6
same,Retinal leakage area,[4]; [8],25.2 ± 3.0%
"O=c1cc(-c2ccc(O)c(O)c2)oc2cc(O[C@@H]3O[C@H](CO)[C@@H](O)[C@H](O)[C@H]3O)cc(O)c12 [Luteoloside, luteoloside, reference compound]",Kd,[1],129 nM
same,No. of retinal neovascularization (10 visual fields),[2]; [6],79 ± 9
same,Retinal leakage area,[2]; [6],27.6%
same,Retinal leakage area,[3]; [7],51.2 ± 6.8%
same,No. of retinal neovascularization (10 visual fields),[4]; [8],82 ± 8
same,Retinal leakage area,[4]; [8],21.3 ± 2.2%
"CC1=C(/C=C/C(C)=C/C=C/C(C)=C/CO)C(C)(C)CC=C1 [Vitamin A2, 3-dehydroretinol]",Kd,[1],23.5 nM
"CC1=C(/C=C/C(C)=C/C=C/C(C)=C/CO)C(C)(C)CCC1 [Vitamin A, retinol, reference compound]",Kd,[1],22.7 nM
same,No. of retinal neovascularization (10 visual fields),[2]; [6],76 ± 8
same,Retinal leakage area,[2]; [6],28.9%
same,Retinal leakage area,[3]; [7],46.9 ± 4.9%
same,No. of retinal neovascularization (10 visual fields),[4]; [8],79 ± 10
same,Retinal leakage area,[4]; [8],26.7 ± 3.4%
O=C(O)Cc1ccccc1Nc1c(Cl)cccc1Cl [diclofenac],molecules of ligand that one molecule of TTR dimer can bind,[5],two molecules
"human TTR-CL: human mature TTR losing C terminus-TNPKE, amino acid sequence of SEQ ID NO: 11",eyeball retinal leakage condition (in words),[2]; [9],significantly inhibited
same,number of retinal neovascularization (in words),[2]; [9],reduced significantly
same,No. of retinal neovascularization (10 visual fields),[2]; [10],10 ± 1
same,Retinal leakage area,[2]; [10],5.7 ± 0.9%
same,Retinal leakage area,[3]; [11],3.0%
same,No. of retinal neovascularization (10 visual fields),[4]; [12],11 ± 2
same,Retinal leakage area,[4]; [12],4.8 ± 0.6%
same,eyeball retinal leakage condition (in words),"[4]; AMD C57BL/6 mice, 2 weeks",inhibited significantly
same,number of retinal neovascularization / neovascularization condition (in words),"[4]; AMD C57BL/6 mice, 2 weeks",reduced significantly
"mouse TTR: recombinant mouse TTR, amino acid sequence SEQ ID NO: 10",No. of retinal neovascularization (10 visual fields),[4]; [12],10 ± 3
same,Retinal leakage area,[4]; [12],4.2 ± 0.5%
same,eyeball retinal leakage condition (in words),"[4]; AMD C57BL/6 mice, 2 weeks",inhibited significantly
same,number of retinal neovascularization / neovascularization condition (in words),"[4]; AMD C57BL/6 mice, 2 weeks",reduced significantly
"rat TTR: recombinant rat TTR, amino acid sequence SEQ ID NO: 9",eyeball retinal leakage condition (in words),[2]; [9],significantly inhibited
same,number of retinal neovascularization (in words),[2]; [9],reduced significantly
same,No. of retinal neovascularization (10 visual fields),[2]; [10],13 ± 2
same,Retinal leakage area,[2]; [10],6.2 ± 0.7%
same,Retinal leakage area,[3]; [11],3.6%
